Data: US12533357B2, “Treatment for acute myeloid leukemia or myelodysplastic syndrome” (UNIVERSITY HEALTH NETWORK, priority 2019, dated 2026)
pIC50: −log10 of the molar value.

How the values were obtained:
[1] = tested on: OCI-AML3; assay: In vitro cytotoxicity (IC50) assay, alamarBlue; type: cell-based; details: OCI-AML3, AML M4
Procedure: (§1) Cells were seeded in triplicate at 10,000 per 80 uL, into 96-well plates 24 hours before compound overlay and cultured at 37° C. and 5% CO2. Compound (I) was prepared as a 10 mM stock in 100% DMSO and diluted with RPMI 1640 cell growth medium containing 10% FBS such that the final concentrations ranged from 50 pM to 15 uM. Aliquots (20 uL) from each concentration were overlaid to 80 uL of pre-seeded cells to achieve final concentrations of 10 pM to 3 uM. After 3 days, cell viability in each well was assessed by alamarBlue assay according to the manufacturer's instruction (ThermoFisher Scientific). Absorbance was read at 570 nm using a SpectraPlus microplate reader (Molecular Devices Corporation). alamarBlue absorbance values were adjusted by subtracting the average of the baseline readings from untreated cells assessed one day after cell seeding. The percentage (%) of relative inhibition of cell viability was calculated by comparing to DMSO-treated cells. IC50s were calculated using GraphPad PRISM software (GraphPad Software Inc.).

[2] = tested on: OCI-LY18; assay: In vitro cytotoxicity (IC50) assay, alamarBlue; type: cell-based; details: OCI-LY18, NHL GCB-DLBCL
Procedure: as §1

[3] = tested on: NALM-6; assay: In vitro cytotoxicity (IC50) assay, alamarBlue; type: cell-based; details: NALM-6, B-ALL
Procedure: as §1

[4] = tested on: RS4;11; assay: In vitro cytotoxicity (IC50) assay, alamarBlue; type: cell-based; details: RS4;11, B-ALL
Procedure: as §1

[5] = tested on: NALM-16; assay: In vitro cytotoxicity (IC50) assay, alamarBlue; type: cell-based; details: NALM-16, B-ALL
Procedure: as §1

[6] = tested on: REH; assay: In vitro cytotoxicity (IC50) assay, alamarBlue; type: cell-based; details: B-ALL
Procedure: as §1

[7] = tested on: OCI-LY3; assay: In vitro cytotoxicity (IC50) assay, alamarBlue; type: cell-based; details: OCI-LY3, NHL ABC-DLCBL
Procedure: as §1

[8] = tested on: OCI-AML2; assay: In vitro cytotoxicity (IC50) assay, alamarBlue; type: cell-based; details: OCI-AML2, AML M4
Procedure: as §1

[9] = tested on: DAUDI; assay: In vitro cytotoxicity (IC50) assay, alamarBlue; type: cell-based; details: NHL B-Cell Burkitt
Procedure: as §1

[10] = tested on: THP-1; assay: In vitro cytotoxicity (IC50) assay, alamarBlue; type: cell-based; details: THP-1, AML M5
Procedure: as §1

[11] = tested on: OCI-LY8; assay: In vitro cytotoxicity (IC50) assay, alamarBlue; type: cell-based; details: OCI-LY8, NHL GCB-DLBCL
Procedure: as §1

[12] = tested on: KOPN-8; assay: In vitro cytotoxicity (IC50) assay, alamarBlue; type: cell-based; details: KOPN-8, B-ALL
Procedure: as §1

[13] = tested on: TF-1; assay: In vitro cytotoxicity (IC50) assay, alamarBlue; type: cell-based; details: TF-1, AML M6
Procedure: as §1

[14] = tested on: MV4-11 acute myeloid leukemia xenograft; assay: MV4-11 xenograft tumor growth in SCID mice; type: in vivo; details: for tumor response by day 10: fumarate
Procedure: The human acute myeloid leukemia cell line MV4-11 was acquired from American Type Culture Collection (Manassas, VA, USA) and grown in RPMI medium containing 100 units/mL penicillin G sodium, 100 μg/mL streptomycin sulfate. The media was supplemented with 10% heat-inactivated fetal bovine serum, 2 mM L-glutamine, and 0.11% sodium pyruvate. The tumor cells were maintained in a humidified environment of 5% CO2 and 95% air at 37° C. Cells were verified to be free of mouse pathogens by IMPACT IV PCR analysis (IDEXX RADIL, Colombia, MO, USA) before injection.
Female SCID mice were purchased from the Ontario Cancer Institute and received and acclimated at the MaRS-TMDT Animal Resources Centre for 2 weeks prior to the start of the experiment. The mice were fed ad libitum autoclaved water and Rodent Lab Diet (Harlan Teklad LM-485) consisting of 19% crude protein, 5% crude fat, and 5% crude fiber. Mice were housed in microisolator cages and maintained in an environment with a 12-hour light cycle at 20-22° C. and 40-60% humidity. On the day of implantation, MV4-11 cells were harvested and resuspended with serum free DMEM to a concentration of 1×10^8/mL and each mouse was injected subcutaneously with a volume of 0.1 mL containing 1×10^7 MV4-11 cells in the right rear flank.
Animals were dosed Compound (I) via oral gavage in a volume of 10 ml/kg. The animals were dosed with a 2.25 mm×50 mm curved gavage needle affixed to a 1 ml syringe. Vincristine was dosed by IP injection once per week.
Toxicity was evaluated by body weight measurements and clinical observations. The mice were observed daily for overt signs of any adverse, treatment related side effects, and clinical signs of toxicity. Acceptable toxicity was set at a group mean body weight loss of less than 20% during the study and not more than one treatment related death in a group. Animals were monitored for body weights and tumor growth where tumor volumes were calculated using the formula: tumor volume=width^2×length/2.
The study evaluated Compound (I) fumarate administered by oral gavage, either daily at 7.5 mg/kg or 2 days on/5 days off at 13.5 mg/kg, in comparison to the standard-of-care agent vincristine, dosed in 4 weekly intraperitoneal injections of 0.5 mg/kg, in the MV4-11 acute myeloid leukemia xenograft model in SCID (severe combined immunodeficiency) mice. Xenografts were established by subcutaneously injecting 1×10^7 tumor cells into the right flank of female SCID mice. Treatment was initiated 14 days following implantation when tumor volumes reached a mean volume of approximately 90 mm^3. […] Animals were dosed in the 2-on/5-off schedule for 21 days. […] By day 13, the average volume of the control tumors was 878 mm^3, averaging […] tumor growth over the 13 days. On day 13 the average tumor growth inhibition in the vincristine treated arm was 85% (p=0.14).

[15] = tested on: MOLT-4; assay: In vitro cytotoxicity (IC50) assay, alamarBlue; type: cell-based, human; details: MOLT-4, T-ALL
Procedure: as §1

[16] = tested on: MV4-11; assay: In vitro cytotoxicity (IC50) assay, alamarBlue; type: cell-based, human; details: MV4-11, AML M5
Procedure: as §1

[17] = Homo sapiens, 72 h, 3 days, read-out: Compound (I) IC50

## COc1ccc2c(c1)[C@]1(C[C@H]1c1ccc3c(/C=C/c4ccc(CN5C[C@@H](C)O[C@@H](C)C5)cc4)n[nH]c3c1)C(=O)N2 [Compound (I), (1R,2S)-2-(3-((E)-4-(((2S,6R)-2,6-dimethylmorpholino)methyl)styryl)-1H-indazol-6-yl)-5′-methoxyspiro[cyclopropane-1,3′-indolin]-2′-one]
[1]
  Response to Compound (I): mitotic defects +
[2]
  Response to Compound (I): mitotic defects +
[3]
  Response to Compound (I): mitotic defects +
[4]
  Response to Compound (I): mitotic defects +
[5]
  Response to Compound (I): mitotic defects +
[6]
  Response to Compound (I): death
[6]; [17]
  pIC50: 8.29
[7]
  Response to Compound (I): mitotic defects +
[8]
  Response to Compound (I): mitotic defects +
[9]; [17]
  pIC50: 9.70
[9]
  Response to Compound (I): death
[10]; [17]
  pIC50: 8.85
[10]
  Response to Compound (I): death
[11]
  Response to Compound (I): mitotic defects +
[12]; [17]
  pIC50: 9.15
[12]
  Response to Compound (I): death
[13]; [17]
  pIC50: 8.66
[13]
  Response to Compound (I): death
[14]; 2 days-on/5 days-off arm, 13.5 mg/kg
  animals remained tumor-free until: 24 days
[14]; SCID mice
  overall efficacy in MV4-11 xenograft model: very efficacious and potentially curative
[14]; daily dosing arm, 7.5 mg/kg
  animals remained tumor-free until: 74 days
[14]; daily dosing arm, Day 128
  animals tumor free until last measurement time point: Four of 6
[14]; oral 13.5 mg/kg 2-on/5-off
  tumor response by day 10: completely regressed tumors
[14]; oral daily 7.5 mg/kg
  tumor response by day 10: completely regressed tumors
[14]; oral daily 7.5 mg/kg, halted after 14 days
  toxicity: reason daily dosing was halted: excessive body weight loss
[15]; [17]
  pIC50: 8.39
[15]
  Response to Compound (I): death
[16]; [17]
  pIC50: 8.24
[16]
  Response to Compound (I): death
